# Assay results reported in patent US20260232767A1, “INTERLEUKIN-23 RECEPTOR ANTAGONIST PEPTIDES FOR USE IN THE TREATMENT OF PSORIASIS” (Janssen Pharmaceutica NV, priority 2023, published 2026).
# Tested on: subjects with moderate-to-severe plaque psoriasis
# Assay: PSSD symptom and sign scores, Example 2
# Format: in vivo, human
# Conditions: for Change from Baseline in PSSD Sign Score, LSMean / Change from Baseline in PSSD Symptom Score, LSMean: MMRM
smiles,measurement,setting,value
"CC(=O)NCCCC[C@@H]1NC(=O)[C@H](Cc2c[nH]c3c(C)cccc23)NC(=O)[C@H]([C@@H](C)O)NC(=O)[C@H](CC(N)=O)NC(=O)[C@@H](NC(C)=O)C(C)(C)SSC(C)(C)[C@@H](C(=O)N[C@@H](Cc2ccc(OCCN)cc2)C(=O)N[C@@H](Cc2ccc3ccccc3c2)C(=O)NC2(C(=O)N[C@@H](CCC(=O)O)C(=O)N[C@@H](CC(N)=O)C(=O)N[C@@H](Cc3cccnc3)C(=O)N(C)CC(N)=O)CCOCC2)NC1=O [IL-23 receptor antagonist peptide, Ac-[Pen]*-N-T-[W(7-Me)]-[Lys(Ac)]-[Pen]*-Phe[4-(2-aminoethoxy)]-[2-Nal]-[THP]-E-N-[3-Pal]-Sarc-NH2 (*[Pen]-[Pen]* formdisulfidebond)]","Change from Baseline in PSSD Symptom Score, Mean","Week 4, 50 mg QD",−23.6
same,"Change from Baseline in PSSD Symptom Score, Median","Week 4, 50 mg QD",−23.0
same,"Change from Baseline in PSSD Sign Score, LSMean","Week 4, 50 mg QD",−28.0
same,"Change from Baseline in PSSD Symptom Score, LSMean","Week 4, 50 mg QD",−23.4
same,"Change from Baseline in PSSD Sign Score, Mean","Week 4, 100 mg BID",−33.3
same,"Change from Baseline in PSSD Sign Score, Median","Week 4, 100 mg BID",−32.0
same,"Change from Baseline in PSSD Symptom Score, Mean","Week 4, 100 mg BID",−26.1
same,"Change from Baseline in PSSD Symptom Score, Median","Week 4, 100 mg BID",−22.0
same,Subjects Achieving PSSD Symptom Score 0 (%),"Week 4, 100 mg BID, Baseline Symptom Score ≥1, N=42",(4.8%)
same,"Change from Baseline in PSSD Sign Score, LSMean","Week 4, 100 mg BID",−32.9
same,"Change from Baseline in PSSD Symptom Score, LSMean","Week 4, 100 mg BID",−24.4
same,"Change from Baseline in PSSD Sign Score, Mean","Week 4, 100 mg QD",−31.1
same,"Change from Baseline in PSSD Sign Score, Median","Week 4, 100 mg QD",−32.5
same,"Change from Baseline in PSSD Symptom Score, Mean","Week 4, 100 mg QD",−19.4
same,"Change from Baseline in PSSD Symptom Score, Median","Week 4, 100 mg QD",−17.0
same,Subjects Achieving PSSD Sign Score 0 (%),"Week 4, 100 mg QD, Baseline Sign Score ≥1, N=43",(2.3%)
same,Subjects Achieving PSSD Symptom Score 0 (%),"Week 4, 100 mg QD, Baseline Symptom Score ≥1, N=43",(2.3%)
same,"Change from Baseline in PSSD Sign Score, LSMean","Week 4, 100 mg QD",−33.8
same,"Change from Baseline in PSSD Symptom Score, LSMean","Week 4, 100 mg QD",−24.5
same,"Change from Baseline in PSSD Sign Score, Mean","Week 8, 25 mg BID",−33.8
same,"Change from Baseline in PSSD Sign Score, Median","Week 8, 25 mg BID",−38.0
same,"Change from Baseline in PSSD Symptom Score, Mean","Week 8, 25 mg BID",−27.5
same,"Change from Baseline in PSSD Symptom Score, Median","Week 8, 25 mg BID",−22.0
same,Subjects Achieving PSSD Sign Score 0 (%),"Week 8, 25 mg BID, Baseline Sign Score ≥1, N=41",(2.4%)
same,Subjects Achieving PSSD Symptom Score 0 (%),"Week 8, 25 mg BID, Baseline Symptom Score ≥1, N=41",(7.3%)
same,"Change from Baseline in PSSD Sign Score, LSMean","Week 8, 25 mg BID",−34.1
same,"Change from Baseline in PSSD Symptom Score, LSMean","Week 8, 25 mg BID",−27.5
same,"Change from Baseline in PSSD Sign Score, Mean","Week 8, 25 mg QD",−33.0
same,"Change from Baseline in PSSD Sign Score, Median","Week 8, 25 mg QD",−40.0
same,"Change from Baseline in PSSD Symptom Score, Mean","Week 8, 25 mg QD",−32.3
same,"Change from Baseline in PSSD Symptom Score, Median","Week 8, 25 mg QD",−32.0
same,Subjects Achieving PSSD Sign Score 0 (%),"Week 8, 25 mg QD, Baseline Sign Score ≥1, N=43",(4.7%)
same,Subjects Achieving PSSD Symptom Score 0 (%),"Week 8, 25 mg QD, Baseline Symptom Score ≥1, N=43",(9.3%)
same,"Change from Baseline in PSSD Sign Score, LSMean","Week 8, 25 mg QD",−29.0
same,"Change from Baseline in PSSD Symptom Score, LSMean","Week 8, 25 mg QD",−27.1
same,"Change from Baseline in PSSD Sign Score, Mean","Week 8, 50 mg QD",−39.7
same,"Change from Baseline in PSSD Sign Score, Median","Week 8, 50 mg QD",−40.5
same,"Change from Baseline in PSSD Symptom Score, Mean","Week 8, 50 mg QD",−35.0
same,"Change from Baseline in PSSD Symptom Score, Median","Week 8, 50 mg QD",−36.0
same,Subjects Achieving PSSD Sign Score 0 (%),"Week 8, 50 mg QD, Baseline Sign Score ≥1, N=43",(7.0%)
same,Subjects Achieving PSSD Symptom Score 0 (%),"Week 8, 50 mg QD, Baseline Symptom Score ≥1, N=42",(9.5%)
same,"Change from Baseline in PSSD Sign Score, LSMean","Week 8, 50 mg QD",−40.1
same,"Change from Baseline in PSSD Symptom Score, LSMean","Week 8, 50 mg QD",−34.3
same,"Change from Baseline in PSSD Sign Score, Mean","Week 8, 100 mg BID",−48.3
same,"Change from Baseline in PSSD Sign Score, Median","Week 8, 100 mg BID",−52.0
same,"Change from Baseline in PSSD Symptom Score, Mean","Week 8, 100 mg BID",−41.7
same,"Change from Baseline in PSSD Symptom Score, Median","Week 8, 100 mg BID",−42.0
same,Subjects Achieving PSSD Sign Score 0 (%),"Week 8, 100 mg BID, Baseline Sign Score ≥1, N=42",(9.5%)
same,Subjects Achieving PSSD Symptom Score 0 (%),"Week 8, 100 mg BID, Baseline Symptom Score ≥1, N=42",(16.7%)
same,"Change from Baseline in PSSD Sign Score, LSMean","Week 8, 100 mg BID",−47.5
same,"Change from Baseline in PSSD Symptom Score, LSMean","Week 8, 100 mg BID",−39.2
same,"Change from Baseline in PSSD Sign Score, Mean","Week 8, 100 mg QD",−40.2
same,"Change from Baseline in PSSD Sign Score, Median","Week 8, 100 mg QD",−43.0
same,"Change from Baseline in PSSD Symptom Score, Mean","Week 8, 100 mg QD",−27.8
same,"Change from Baseline in PSSD Symptom Score, Median","Week 8, 100 mg QD",−26.0
same,Subjects Achieving PSSD Sign Score 0 (%),"Week 8, 100 mg QD, Baseline Sign Score ≥1, N=43",(7.0%)
same,Subjects Achieving PSSD Symptom Score 0 (%),"Week 8, 100 mg QD, Baseline Symptom Score ≥1, N=43",(14.0%)
same,"Change from Baseline in PSSD Sign Score, LSMean","Week 8, 100 mg QD",−43.2
same,"Change from Baseline in PSSD Symptom Score, LSMean","Week 8, 100 mg QD",−33.3
same,"Change from Baseline in PSSD Sign Score, Mean","Week 12, 25 mg BID",−38.5
same,"Change from Baseline in PSSD Sign Score, Median","Week 12, 25 mg BID",−40.0
same,"Change from Baseline in PSSD Symptom Score, Mean","Week 12, 25 mg BID",−32.0
same,"Change from Baseline in PSSD Symptom Score, Median","Week 12, 25 mg BID",−28.0
same,Subjects Achieving PSSD Sign Score 0 (%),"Week 12, 25 mg BID, Baseline Sign Score ≥1, N=41",(7.3%)
same,Subjects Achieving PSSD Symptom Score 0 (%),"Week 12, 25 mg BID, Baseline Symptom Score ≥1, N=41",(7.3%)
same,"Change from Baseline in PSSD Sign Score, LSMean","Week 12, 25 mg BID",−39.0
same,"Change from Baseline in PSSD Symptom Score, LSMean","Week 12, 25 mg BID",−32.3
same,"Change from Baseline in PSSD Sign Score, Mean","Week 12, 25 mg QD",−34.8
same,"Change from Baseline in PSSD Sign Score, Median","Week 12, 25 mg QD",−40.0
same,"Change from Baseline in PSSD Symptom Score, Mean","Week 12, 25 mg QD",−31.5
same,"Change from Baseline in PSSD Symptom Score, Median","Week 12, 25 mg QD",−34.0
same,Subjects Achieving PSSD Symptom Score 0 (%),"Week 12, 25 mg QD, Baseline Symptom Score ≥1, N=43",(14.0%)
same,"Change from Baseline in PSSD Sign Score, LSMean","Week 12, 25 mg QD",−30.7
same,"Change from Baseline in PSSD Symptom Score, LSMean","Week 12, 25 mg QD",−25.8
same,"Change from Baseline in PSSD Sign Score, Mean","Week 12, 50 mg QD",−42.5
same,"Change from Baseline in PSSD Sign Score, Median","Week 12, 50 mg QD",−46.0
same,"Change from Baseline in PSSD Symptom Score, Mean","Week 12, 50 mg QD",−36.3
same,"Change from Baseline in PSSD Symptom Score, Median","Week 12, 50 mg QD",−37.0
same,Subjects Achieving PSSD Sign Score 0 (%),"Week 12, 50 mg QD, Baseline Sign Score ≥1, N=43",(4.7%)
same,Subjects Achieving PSSD Symptom Score 0 (%),"Week 12, 50 mg QD, Baseline Symptom Score ≥1, N=42",(19.0%)
same,"Change from Baseline in PSSD Sign Score, LSMean","Week 12, 50 mg QD",−43.0
same,"Change from Baseline in PSSD Symptom Score, LSMean","Week 12, 50 mg QD",−35.7
same,"Change from Baseline in PSSD Sign Score, Mean","Week 12, 100 mg BID",−49.9
same,"Change from Baseline in PSSD Sign Score, Median","Week 12, 100 mg BID",−53.0
same,"Change from Baseline in PSSD Symptom Score, Mean","Week 12, 100 mg BID",−42.3
same,"Change from Baseline in PSSD Symptom Score, Median","Week 12, 100 mg BID",−41.0
same,Subjects Achieving PSSD Sign Score 0 (%),"Week 12, 100 mg BID, Baseline Sign Score ≥1, N=42",(11.9%)
same,Subjects Achieving PSSD Symptom Score 0 (%),"Week 12, 100 mg BID, Baseline Symptom Score ≥1, N=42",(26.2%)
same,"Change from Baseline in PSSD Sign Score, LSMean","Week 12, 100 mg BID",−48.8
same,"Change from Baseline in PSSD Symptom Score, LSMean","Week 12, 100 mg BID",−39.5
same,"Change from Baseline in PSSD Sign Score, Mean","Week 12, 100 mg QD",−39.1
same,"Change from Baseline in PSSD Sign Score, Median","Week 12, 100 mg QD",−45.0
same,"Change from Baseline in PSSD Symptom Score, Mean","Week 12, 100 mg QD",−27.9
same,"Change from Baseline in PSSD Symptom Score, Median","Week 12, 100 mg QD",−27.0
same,Subjects Achieving PSSD Sign Score 0 (%),"Week 12, 100 mg QD, Baseline Sign Score ≥1, N=43",(7.0%)
same,Subjects Achieving PSSD Symptom Score 0 (%),"Week 12, 100 mg QD, Baseline Symptom Score ≥1, N=43",(20.9%)
same,"Change from Baseline in PSSD Sign Score, LSMean","Week 12, 100 mg QD",−42.2
same,"Change from Baseline in PSSD Symptom Score, LSMean","Week 12, 100 mg QD",−34.7
same,"Change from Baseline in PSSD Sign Score, Mean","Week 16, 25 mg BID",−41.8
same,"Change from Baseline in PSSD Sign Score, Median","Week 16, 25 mg BID",−36.5
same,"Change from Baseline in PSSD Symptom Score, Mean","Week 16, 25 mg BID",−34.0
same,"Change from Baseline in PSSD Symptom Score, Median","Week 16, 25 mg BID",−28.0
same,Subjects Achieving PSSD Sign Score 0 (%),"Week 16, 25 mg BID, Baseline Sign Score ≥1, N=41",(9.8%)
same,Subjects Achieving PSSD Symptom Score 0 (%),"Week 16, 25 mg BID, Baseline Symptom Score ≥1, N=41",(17.1%)
same,"Change from Baseline in PSSD Sign Score, LSMean","Week 16, 25 mg BID",−40.9
same,"Change from Baseline in PSSD Symptom Score, LSMean","Week 16, 25 mg BID",−32.7
same,"Change from Baseline in PSSD Sign Score, Mean","Week 16, 25 mg QD",−38.6
same,"Change from Baseline in PSSD Sign Score, Median","Week 16, 25 mg QD",−43.0
same,"Change from Baseline in PSSD Symptom Score, Mean","Week 16, 25 mg QD",−35.8
same,"Change from Baseline in PSSD Symptom Score, Median","Week 16, 25 mg QD",−34.0
